From article PMC6271227, “Biopharmaceutical Profiling of New Antitumor Pyrazole Derivatives” (Molecules, 2014)

How the values were obtained:
[1] = Analysis by the general solubility equation (GSE): logP and melting point; format: physicochemical; conditions: Mp >200 °C, moderate lipophilicity
From the text: The general solubility equation (GSE) developed by Jain et al. provides a quantitative relationship between the three parameters: log Sw = 0.5 − 0.01(Mp − 25) − log P(1)
Starting from the general solubility equation, the poorly soluble drugs were sub-classified by the group of Bergström et al. in two types of molecules: “grease ball” and “brick dust” molecules. […] These compounds cannot form bonds with water molecules, and therefore their solubility is limited by the solvation process. By contrast, “brick dust” molecules are usually compounds with rather rigid and flat molecules with a high melting point (>190 °C) and moderate lipophilicity. Their solubility is being solid-state-limited being mainly restricted by the inability of the compound to dissociate from the crystal lattice and can generally be improved by different methods involving a disruption of the stable crystal lattice.

NCI 60 cancer lines = tested on: NCI 60 cancer lines; set-up: method as in PMID 20728965; conditions: cited from earlier work
[2] = the 43 lines with logCI50 under −4

SMILES | type of poorly soluble molecule (grease ball / brick dust) [1] | number of the NCI 60 cancer lines with logCI50 under −4 (NCI 60 cancer lines) | logCI50 average (NCI 60 cancer lines; [2]) | logCI50 values (range) (NCI 60 cancer lines; [2])
Cc1cc(NC(=S)NC(=O)c2ccc(Cl)cc2)n[nH]1 [BC2] | brick dust |  |  | 
Cc1ccc(C(=O)NC(=S)Nc2cc(C)[nH]n2)cc1 [BM2] | brick dust |  |  | 
Cc1ccc(C(=O)NC(=S)Nc2cc(C)nn2-c2ccccc2)cc1 [BM5] | brick dust |  |  | 
Cc1cc(NC(=S)NC(=O)c2ccccc2)n[nH]1 [BT2] | brick dust |  |  | 
O=C(NC(=S)Nc1cc(-c2ccc(Br)cc2)n[nH]1)c1ccccc1 [N-benzoyl-N'-[3-(4-bromophenyl)-1H-pyrazol-5-yl]-thiourea] |  | 43 | −5.02 | −4.12 to −5.75
